For series [1] the following is noted: cited from earlier work.
Series [2] is described as follows: Solubility of cabazitaxel in PEG300/SBE-β-CD/PVPK12/water solution system with additives. The series is classed as physicochemical. The following applies: 700 mg/ml PEG300, 290 mg/ml SBE-β-CD, 80 mg/ml PVPK12, water, nitrogen. The source says: In view of various defects of the prior art, the inventor of the present application breaks through the prejudice of the prior art, conducts reverse experiments on existing knowledge, reduces the amount of cyclodextrin and abandons the use of ethanol having strong stimulation as a solvent and Tween 80 having side effects.

Series [3] can be described thus: Solubility of cabazitaxel in 40% SBE-β-CD aqueous solution. The series is classed as physicochemical. Particulars: found by the present inventors. The source says: Cyclodextrin, a pharmaceutical excipient, has a hollow hydrophobic, stereoscopic chiral inner cavity; due to its structural characteristic of “inner hydrophobic, external hydrophilic”, it can encapsulate a variety of small organic molecules (substrates) having suitable space size to form a noncovalent host-guest complex (inclusion complex). Its most significant pharmaceutical function is to increase the water solubility of poorly soluble drugs and improve the stability of drugs. For example, the invention application No. CA2900508A1 (US20150325321A1) by Valery Alakhov et al. disclosed a composition comprising cabazitaxel and suifobutyl ether beta cyclodextrin (SBF-β-CD) in a weight ratio of 1:30 to 1:1000. […] Even if it can reach such concentration, it is difficult to prepare a cabazitaxel injection that meets the concentration specifications of commercial preparations.

Data on one substance can be found in patent publication US20200268705A1, “CABAZITAXEL COMPOSITION FOR INJECTION AND PREPARATION METHOD THEREFOR” (BIKA BIOTECHNOLOGY (GUANGZHOU) CO., LTD., priority 2018, published 2020).

Turning to “(1S,2S,3R,4S,7R,9S,10S,12R,15S)-4-acetyloxy-15-{[(2R,3S)-3-{[(tertbutoxy)carbonylamino]}-2-hydroxy-3-phenylpropanoyl]oxy}-1-hydroxy-9, 12-dimethoxy-10,14,17,17-tetramethyl-11-oxo-6-oxatetracyclo[11.3.1.0^3:10.0^4:7]heptadec-13-ene-2-yl benzoate [cabazitaxel]”, the “stability under alkaline conditions” value in series [1] (alkaline conditions) was “unstable under alkaline conditions”. In addition, in series [1] (ethanol), the solubility in ethanol entry is “soluble in ethanol”. In addition, the solubility in water result in series [1] (water) is “almost insoluble in water”. Moreover, the solubility of cabazitaxel is at least 40 mg/mL in series [2] and “about 1 mg/mL” in series [3].
